# Read-outs that look alike come from different tables or passages of the source.
# Legend:
# [1] = 25° C.; cited from earlier work
# [2] = Physical properties of perfluoro(tert-butylcyclohexane); type: physicochemical
# Source text: Physical properties of perfluoro(tert-butylcyclohexane) are as follows: […]
# [3] = Gas solubility / Henry's Law sorption of oxygen and CO2 in the liquid; type: physicochemical
# Experimental: The amount of dissolved oxygen in the liquid is measured after equilibration with a gas. The partial pressure of the gas (here, oxygen) is varied. The partial pressure of oxygen in air is 0.21 atm.
# The amount of oxygen dissolved in each when the liquids are at equilibrium with the oxygen in the air can be found from the Henry's Law sorption isotherms for the liquids sketched in FIG. 2.
# When the solubility of a gas in a liquid is measured, the solubility is nearly always a linear function of the partial pressure of the gas.
# [4] = Water solubility and lipophilicity (descriptive); type: physicochemical
# skin tissue = assay: Measuring oxygen tension in tissue with fluorescent marker (Example 4); type: in vivo; details: fluorescent marker injected into skin area treated with PFC or PFC gel
# Experimental: A material which binds oxygen (fluorescent marker) is injected into skin tissue. The combination is fluorescent and the more oxygen that is present, the stronger the fluorescent signal. (representing the oxygen tension in the tissue). First it is determined that fluorescence chemistry is unaffected by the PFCs and poloxamers. Then as a control, the fluorescent marker is injected into the skin, and oxygen tension is obtained. Finally, the same area is treated with a PFC or a PFC gel and oxygen tension is again obtained.
# [5] = used for conversion to weight basis
"density [2, 5] [g/L]",CO2 carried [3],oxygen carried [3],oxygen held in contact with air [3],lipophilicity [4],solubility in water [4],lipophilicity ([4]; at body temperature),lipophilicity ([4]; at room temperature),Kinematic Viscosity (cP) [2] [cP],density [2] [g/L],Vapor Pressure (mmHg) @ 25° C. ([2]; 25° C.) [mmHg],Vapor Pressure (mmHg) @ 37° C. ([2]; 37° C.) [mmHg],Compound,Henry's law constant for oxygen [1],oxygen tension in tissue (skin tissue)
1000,,,,,,,,,,,,water,about 8.3 mg O2/L/atm,
1966,196 mL of CO2 per 100 mL of PFC,about 43 mL of oxygen per 100 mL of PFC,about 126 mg O2,non-lipophilic,non-water soluble,only slightly lipophilic,not lipophilic,5.378,1970,3.8,4.4,FC(F)(F)C(C(F)(F)F)(C(F)(F)F)C1(F)C(F)(F)C(F)(F)C(F)(F)C(F)(F)C1(F)F [perfluoro(tert-butylcyclohexane)],about 600 mg O2/L/atm,substantially increases local oxygen tension in the tissue
,,,,,,,,,,,,"perfluoroisopropyldecalin [APF-200, reference compound]",,substantially increases local oxygen tension in the tissue
